In patent US20220185811A1, “FGFR4 KINASE INHIBITOR AND PREPARATION METHOD THEREFOR AND USE THEREOF” (SHOUYAO HOLDINGS (BEIJING) CO., LTD., priority 2019, published 2022):
Read-outs that look alike come from different tables or passages of the source.

Tests used:
[1] = tested on: Human hepatoma cells Hep3b; test: Cell proliferation inhibition, Cell Titer-Glo; format: cell-based; conditions: Hep3B, 72 h
Procedure: 2. Determination of cell proliferation activity of compounds:
Cell Titer-Glo ® detection reagent from Promega was used to establish the suspension cell proliferation inhibition screening method. Human hepatoma cells Hep3b (Xiehe Cell Research Center) were cultured in 25 cm^2 or 75 cm^2 plastic tissue culture flasks (Corning®) filled with MEM (Gibco®) medium supplemented with 10% fetal bovine serum (Hyclone®) under 37° C., 95% air and 5% CO2, and subcultured 2-3 times a week.
(§1) Hep3b cells were seeded in a 96-well cell culture plate (Corning®) at a density of 3×10^3 cells/well, […], and cultured under 37° C., 95% air, and 5% CO2. After 24 h the test compound was added: 10 mM compounds (dissolved in DMSO) were subjected to 3-fold gradient dilution in DMSO , […] of diluent from each concentration was added to […] of serum-free medium, and finally […] of compound diluted in the medium was added to the plate seeded with cells. The final concentration of DMSO in the cell culture medium was 0.1% and the final concentration of the test compound was 0.3 nM-[…]. The above cells were incubated for 3 days under 37° C.
After 3 days, the cell viability assay was performed by the Cell Titer-Glo (Promega) kit, and finally, the inhibitory concentration 50% of the compound on cell proliferation, i.e. the IC 50 value, was calculated by the GraphPad Prism 5.0 program.
as §1, with “DMSO,” for “DMSO ,”, “finally,” for “finally”, “of” for “of the”
After 3 days, the cell viability assay was performed by the Cell Titer-Glo (Promega) kit, and finally the inhibitory concentration 50% of the compound on cell proliferation, i.e. the IC 50 value, was calculated by the GraphPad Prism 5.0 program.

[2] = Pharmacokinetics in male SD rats, single intragastric administration; format: in vivo; conditions: 5 mg/kg suspension, plasma; for AUC(0-inf) / Cmax / Tmax / half-life: rat, po
Procedure: (§2) Male SD rats (Beijing Vital River Laboratory Animal Technology Co., Ltd.) were divided into groups of 3 rats each. The rats were subjected to 5 mg/kg suspension of the test sample by single intragastric administration, respectively. Animals were fasted overnight prior to the experiment from 10 h before dosing to 4 h after dosing. Blood was collected 0.25, 0.5, 1, 2, 4, 6, 8, and 24 h after administration. After isoflurane anesthesia using a small animal anesthesia machine, 0.3 mL of whole blood samples was collected from the fundus venous plexus, placed in a heparin anticoagulant tube, and were centrifuged at 4° C., 4000 rpm for 5 min, plasma was transferred to the centrifuge tube, and stored at −80° C. until analysis. Samples in the plasma were extracted using protein precipitation and the extracts were analyzed by LC/MS/MS.
as §2, with “taken through” for “collected from”, “-80°” for “−80°”

[3] = molecular target: FGFR-4 kinase (Homo sapiens, UniProt P22455); test: FGFR-4 kinase activity, homogeneous time-resolved fluorescence (HTRF) method; format: biochemical; conditions: ATP 25 μM, FGFR-4 kinase 1 nM, read-out: FGFR4 IC50
FGFR-4 kinase, sequence (P22455 22-802): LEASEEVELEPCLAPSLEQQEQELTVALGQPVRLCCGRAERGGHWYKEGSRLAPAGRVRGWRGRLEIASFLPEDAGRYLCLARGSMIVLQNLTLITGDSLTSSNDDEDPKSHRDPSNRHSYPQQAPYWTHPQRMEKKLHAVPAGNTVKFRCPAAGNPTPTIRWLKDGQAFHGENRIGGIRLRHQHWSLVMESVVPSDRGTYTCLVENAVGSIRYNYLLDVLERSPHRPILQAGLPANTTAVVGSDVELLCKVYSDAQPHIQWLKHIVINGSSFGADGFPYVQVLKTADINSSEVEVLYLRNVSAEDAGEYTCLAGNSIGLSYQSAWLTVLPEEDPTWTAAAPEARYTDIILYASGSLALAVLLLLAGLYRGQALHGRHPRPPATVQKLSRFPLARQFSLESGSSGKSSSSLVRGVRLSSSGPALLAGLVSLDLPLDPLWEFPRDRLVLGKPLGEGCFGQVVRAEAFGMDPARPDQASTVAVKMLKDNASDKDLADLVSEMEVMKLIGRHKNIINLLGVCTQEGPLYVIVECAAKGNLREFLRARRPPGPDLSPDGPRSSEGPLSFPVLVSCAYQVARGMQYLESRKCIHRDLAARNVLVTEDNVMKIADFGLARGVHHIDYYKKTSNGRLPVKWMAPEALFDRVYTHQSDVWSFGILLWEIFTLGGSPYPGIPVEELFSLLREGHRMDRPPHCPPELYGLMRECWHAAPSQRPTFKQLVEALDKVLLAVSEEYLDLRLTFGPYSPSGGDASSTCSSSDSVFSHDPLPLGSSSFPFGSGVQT
Procedure: 1. In vitro determination of the protein activity of compounds: The FGFR-4 kinase activity detection platform was established by the homogeneous time-resolved fluorescence (HTRF) method, and the activity of the compound was determined. 1000 μM compounds were subjected to 3-fold gradient dilution in 100% DMSO 11 times (12 concentrations in total), 4 μL diluent from each concentration was added to 96 μL of reaction buffer (50 mM HEPES, pH 7.4, 5 mM MnCl2, 0.1 mM NaVO3, 0.001% Tween-20, 0.01% BAS, 1 mM DTT) and mixed well, as a 4* compound (final concentration of 0.017 nM-1000 nM) for later use. 2 * FGFR-4 kinase (final concentration of 1 nM) was formulated using reaction buffer and 4*substrate (ATP+TK peptide) (TK peptide, HTRF® KinEASETM-TK, purchased from Cisbio, TK peptide, final concentration of 1 μM, ATP final concentration of 25 μ M) was formulated using reaction buffer. 2.5 μL of 4*compound and then 5 μL of 2 * FGFR-4 kinase were added to a 384-well plate (OptiPlate-384, purchased from PerkinElmer), the mixture was mixed by centrifugation, and 2.5 μL of 4 * substrate mixture was added to start the reaction (total reaction volume of 10 µL). The 384-well plate was placed in an incubator 23° C. and stirred for 60 min before the reaction was stopped by the addition of 5 μL of Eu^3+cryptate-labeled anti-phosphotyrosine antibody (TRF® KinEASE™-TK, purchased from Cisbio) and 5 μL of Streptavidin-XL-665 (HTRF® KinEASE™-TK, purchased from Cisbio). After incubation in the incubator for 1 h, fluorescence values (excitation at 320 nm, detecting emitted light at 665 nm and 620 nm, and a ratio of the two as enzyme activity) were read on Envision (purchased from PerkinElmer). The enzyme activity of each compound was measured at 12 concentrations, and the ICso value of the compound was calculated using GraphPad Prism 5.0 software.
The FGFR-4 kinase activity detection platform was established by homogeneous time-resolved fluorescence (HTRF) method, and the activity of compound was determined. 1000 μM compounds were subjected to 3-fold gradient dilution in 100% DMSO 11 times (12 concentrations in total), 4 μL of diluent from each concentration was added to 96 μL of reaction buffer (50 mM HEPES, pH 7.4, 5 mM MnCl2, 0.1 mM NaVO3, 0.001% Tween-20, 0.01% BAS, 1 mM DTT) and mixed well, as a 4* compound (final concentration of 0.017 nM-1000 nM) for later use. 2 * FGFR-4 kinase (final concentration of 1 nM) was formulated using reaction buffer and 4*substrate (ATP+TK peptide)(TK peptide, HTRF® KinEASE™-TK, purchased from Cisbio, TK peptide, final concentration of 1 μM, ATP final concentration of 25 μM) was formulated using reaction buffer. 2.5 μL of 4 * compound and then 5 μL of 2 * FGFR-4 kinase were added to a 384-well plate (OptiPlate-384, purchased from PerkinElmer), the mixture was mixed by centrifugation, and 2.5 μL of 4 * substrate mixture was added to start the reaction (total reaction volume of 10 μL). The 384-well plate was placed in an incubator 23° C. and stirred for 60 min before the reaction was stopped by the addition of 5 μL of Eu^3+cryptate-labled anti-phosphotyrosine antibody (TRF® KinEASE™-TK, purchased from Cisbio) and 5 μL of Streptavidin-XL-665 (HTRF® KinEASE™-TK, purchased from Cisbio). After incubation in the incubator for 1 h, fluorescence values (excitation at 320 nm, detecting emitted light at 665 nm and 620 nm, and a ratio of the two as enzyme activity) were read on Envision (purchased from PerkinElmer). The enzyme activity of each compopund was measured at 12 concentrations, and the ICso value of the compound was calculated using GraphPad prism 5.0 software.

[4] = tested on: FGFR1-4; conditions: background art; equally high-efficiency inhibition of FGFR1-4; cited from earlier work
[5] = first PK table, read-out: T1/2 (converted)
[6] = second PK table, read-out: T½ (converted)

Row | IC50 ([1]; Table 2, 3 days incubation) | IC50 ([3]; Table 2) | AUC(0-inf) ([2]; second PK table) | Cmax ([2]; second PK table) | Tmax ([2]; second PK table) | half-life [2, 6] | SMILES | further results
1 | 66.1 nM | 2.21 nM | – | – | – | – | C=CC(=O)N[C@H]1CCOC[C@H]1Nc1ncc2cc(-c3c(Cl)c(OC)cc(OC)c3Cl)ccc2n1 [Blu-554, reference compound] | IC50 ([1]; Table 1, 3 days incubation): 162 nM; T½ ([2]; second PK table): 1.64 h; AUC(0-inf) ([2]; first PK table): 1680 ng·h/mL; Cmax ([2]; first PK table): 362 ng/mL; Tmax ([2]; first PK table): 2.67 h; half-life [2, 5]: 1.64 h; IC50 ([3]; Table 1): 7.49 nM
2 | – | – | – | – | – | – | C=CC(=O)Nc1cc(-c2cc3c(cn2)cc(-c2c(Cl)c(OC)cc(OC)c2Cl)c2nccn23)c(OC)cc1N1C2CCC1COC2 [Example 6, N-(2-(3-oxa-8-azabicyclo[3 .2.1]octan-8-yl)-5-(4-(2,6-dichloro-3,5-dimethoxyphenyl)imidazo[1,2-a][1,6]naphthyridin-8-yl)-4-methoxyphenyl)acrylamide] | IC50 ([1]; Table 1, 3 days incubation): 58.3 nM; AUC(0-inf) ([2]; first PK table): 2560 ng·h/mL; Cmax ([2]; first PK table): 236 ng/mL; Tmax ([2]; first PK table): 6 h; half-life [2, 5]: 11.5 h
3 | 63.2 nM | 1.1 nM | 3940 ng·h/mL | 505 ng/mL | 2.67 h | 3.97 h | C=CC(=O)Nc1cc(-c2cc3c(cn2)cc(-c2c(Cl)c(OC)cc(OC)c2Cl)c2nccn23)c(OC)cc1N1CCN(C2CC2)CC1 [Example 59] | –
4 | 121 nM | 1.7 nM | 3050 ng·h/mL | 561 ng/mL | 1.17 h | 2.6 h | C=CC(=O)Nc1cc(-c2cc3c(cn2)cc(-c2c(Cl)c(OC)cc(OC)c2Cl)c2nccn23)c(OC)cc1N1C[C@@H]2C[C@H]1CO2 [Example 61, N-(2-((1S,4S)-2-oxa-5-azabicyclo[2.2.1]heptan-5-yl)-5-(4-(2,6-dichloro-3,5-dimethoxyphenyl)imidazo[1,2-a][1,6]naphthyridin-8-yl)-4-methoxyphenyl)acrylamide] | –
5 | – | – | – | – | – | – | COc1cc(OC)cc(N(CCNC(C)C)c2ccc3ncc(-c4cnn(C)c4)nc3c2)c1 [JNJ-42756493] | IC50 on FGFR1-4 [4]: single-digit nanomolar level
6 | – | – | – | – | – | – | C[C@@H](Oc1ccc2[nH]nc(/C=C/c3cnn(CCO)c3)c2c1)c1c(Cl)cncc1Cl [LY2874455] | IC50 on FGFR1-4 [4]: single-digit nanomolar level

Row | SMILES | IC50 ([1]; Table 2, 3 days incubation) | IC50 ([3]; Table 2) | AUC(0-inf) ([2]; second PK table) | Cmax ([2]; second PK table) | Tmax ([2]; second PK table) | half-life [2, 6] | further results
7 | C=CC(=O)Nc1cc(-c2cc3c(cn2)cc(-c2c(Cl)c(OC)cc(OC)c2Cl)c2nccn23)c(OC)cc1N1CCC2(CCOC2)C1 (stereo not shown) [Example 62, N-(5-(4-(2,6-dichloro-3,5-dimethoxyphenyl)imidazo[1,2-a][1,6]naphthyridin-8-yl)-4-methoxy-2-(2-oxa-7-azaspiro[4, 4]nonan-7-yl)phenyl)acrylamide] | 43.8 nM | 2.4 nM | 1120 ng·h/mL | 175 ng/mL | 5.33 h | 4.93 h | –
